How the values were obtained:
D. balteata = assay: Soil activity of seed applied furathiocarb on maize cultivars Centaurus and Arjuna; format: in vivo, Diabrotica balteata; parameters: key to Scores of damage caused by D. balteata: 0-6 crown-root damage scale: 0 = no damage, 6 = <3 roots connect stem to soil
Text: Plastic pots, 1 litre volume, are filled with soil to within 3 cm of the top. Three soil types are used: • 1. A natural soil from Stein, Canton Aargau, Switzerland. This is heat sterilized and sieved to give an agglomerate size of less than 5 mm. Its composition is clay 20.7%, silt 13.7%, sand 65.6%, organic matter 3.2%, pH 5.6. Moisture is adjusted to 20% of dry weight. • 2. An artificial mixture of fine quartz sand and milled neutralized peat (2% of total by dry weight). The moisture is adjusted to 10% of dry weight. • 3. An artificial mixture similar to (2) except that the neutralized peat comprised 6% by dry weight. Moisture is adjusted to 20% for the mixture.
One seed is sown 3 cm deep in the center of each of 10 pots per treatment. The pots are placed in a growth chamber with a relative humidity of 70% in a 12 hour daylength, light intensity 30,000 lux, using 26°C day and 22°C night temperatures. Soil moisture is maintained at the original level by daily irrigation with a commercially available nutrient solution.
After two or three weeks of plant growth, 40 larvae of the banded cucumber beetle (Diabrotica balteata) are scattered on the surface of each pot. This insect species is commonly used as a laboratory model for the corn rootworm (Diabrotica spp.) which is a common soil insect pest of maize (Zea mays) in the USA. For this test, second instar larvae are selected. They are reared on maize seedlings at 23°C for 13 days from egglaying. The surface of the soil in the pots is disturbed and 40 larvae are scattered on the surface. The disturbance encourages burrowing of the larvae.
The insects are allowed to feed on the plant roots for one week before the contents of each pot are separated into three components (roots, insects and soil) using a wet sieving technique. Living larvae are then counted and damage assessed on crown roots growing from the stem-base using the 0-6 scale shown below: • 0 = no damage • 1 = slight feeding damage, no roots eaten through • 2 = more than 3 places with feed damage, no roots eaten through • 3 = 1-2 roots eaten through • 4 = more than 2, but less than half the roots eaten • 5 = more than half the roots eaten, but at least 3 still connect stem and soil • 6 = less than 3 roots connect stem to soil
This example includes the results of test series using 2 maize cultivars Centaurus and Arjuna. The basic test procedure is described in detail under example 20 therefore only differences are mentioned here.
Seeds of the hybrid Centaurus are treated with 4 or 10 g/kg furathiocarb in either PVAc/PVAl or association polymer systems. The cultivar Arjuna is treated with 2.5 or 10 g/kg seed in the same polymer systems. The seeds are sown in two soil types, either a natural soil from Stein, Canton Aargau, Switzerland or in a 98% sand 2% peat mixture. Both these soil types are described previously.

corn rootworms = assay: Field control of corn rootworms by insecticide/polymer combinations applied to the seed; format: in vivo, Diabrotica spp.; details: maize G 4733, 0-6 scale, 63 days after planting
[1] = cultivar Arjuna, 98% Sand, 3 w, Association Polymer, dosage 2.5 g
[2] = cultivar Arjuna, 98% Sand, 3 w, Association Polymer, dosage 10 g
[3] = cultivar Arjuna, 98% Sand, 3 w, PVAc/PVAl, dosage 2.5 g
[4] = cultivar Arjuna, 98% Sand, 3 w, PVAc/PVAl, dosage 10 g
[5] = cultivar Arjuna, 98% Sand, 4 w, Association Polymer, dosage 2.5 g
[6] = cultivar Arjuna, 98% Sand, 4 w, Association Polymer, dosage 10 g
[7] = cultivar Arjuna, 98% Sand, 4 w, PVAc/PVAl, dosage 2.5 g
[8] = cultivar Arjuna, 98% Sand, 4 w, PVAc/PVAl, dosage 10 g
[9] = cultivar Arjuna, Stein Earth, 3 w, Association Polymer, dosage 2.5 g
[10] = cultivar Arjuna, Stein Earth, 3 w, Association Polymer, dosage 10 g
[11] = cultivar Arjuna, Stein Earth, 3 w, PVAc/PVAl, dosage 2.5 g
[12] = cultivar Arjuna, Stein Earth, 3 w, PVAc/PVAl, dosage 10 g
[13] = cultivar Arjuna, Stein Earth, 4 w, Association Polymer, dosage 2.5 g
[14] = cultivar Arjuna, Stein Earth, 4 w, Association Polymer, dosage 10 g
[15] = cultivar Arjuna, Stein Earth, 4 w, PVAc/PVAl, dosage 2.5 g
[16] = cultivar Arjuna, Stein Earth, 4 w, PVAc/PVAl, dosage 10 g
[17] = hybrid Centaurus, 98% Sand, 3 w, Association Polymer, dosage 4 g
[18] = hybrid Centaurus, 98% Sand, 3 w, Association Polymer, dosage 10 g
[19] = hybrid Centaurus, 98% Sand, 3 w, PVAc/PVAl, dosage 4 g
[20] = hybrid Centaurus, 98% Sand, 3 w, PVAc/PVAl, dosage 10 g
[21] = hybrid Centaurus, 98% Sand, 4 w, Association Polymer, dosage 4 g
[22] = hybrid Centaurus, 98% Sand, 4 w, Association Polymer, dosage 10 g
[23] = hybrid Centaurus, 98% Sand, 4 w, PVAc/PVAl, dosage 4 g
[24] = hybrid Centaurus, 98% Sand, 4 w, PVAc/PVAl, dosage 10 g
[25] = hybrid Centaurus, Stein Earth, 3 w, Association Polymer, dosage 4 g
[26] = hybrid Centaurus, Stein Earth, 3 w, Association Polymer, dosage 10 g
[27] = hybrid Centaurus, Stein Earth, 3 w, PVAc/PVAl, dosage 4 g
[28] = hybrid Centaurus, Stein Earth, 3 w, PVAc/PVAl, dosage 10 g
[29] = hybrid Centaurus, Stein Earth, 4 w, Association Polymer, dosage 4 g
[30] = hybrid Centaurus, Stein Earth, 4 w, Association Polymer, dosage 10 g
[31] = hybrid Centaurus, Stein Earth, 4 w, PVAc/PVAl, dosage 4 g
[32] = hybrid Centaurus, Stein Earth, 4 w, PVAc/PVAl, dosage 10 g

CCCCOC(=O)N(C)SN(C)C(=O)Oc1cccc2c1OC(C)(C)C2 [furathiocarb]
Percent D. balteata survival (D. balteata; [1]): 5% | Scores of damage caused by D. balteata (D. balteata; [1]): 1.4 | Percent D. balteata survival (D. balteata; [2]): 8% | Scores of damage caused by D. balteata (D. balteata; [2]): 1.2 | Percent D. balteata survival (D. balteata; [3]): 20% | Scores of damage caused by D. balteata (D. balteata; [3]): 3.0 | Percent D. balteata survival (D. balteata; [4]): 20% | Scores of damage caused by D. balteata (D. balteata; [4]): 2.8 | Percent D. balteata survival (D. balteata; [5]): 17% | Scores of damage caused by D. balteata (D. balteata; [5]): 2.8 | Percent D. balteata survival (D. balteata; [6]): 0% | Scores of damage caused by D. balteata (D. balteata; [6]): 0.6 | Percent D. balteata survival (D. balteata; [7]): 39% | Scores of damage caused by D. balteata (D. balteata; [7]): 3.4 | Percent D. balteata survival (D. balteata; [8]): 21% | Scores of damage caused by D. balteata (D. balteata; [8]): 3.2 | Percent D. balteata survival (D. balteata; [9]): 1% | Scores of damage caused by D. balteata (D. balteata; [9]): 3.6 | Percent D. balteata survival (D. balteata; [10]): 1% | Scores of damage caused by D. balteata (D. balteata; [10]): 1.8 | Percent D. balteata survival (D. balteata; [11]): 5% | Scores of damage caused by D. balteata (D. balteata; [11]): 3.2 | Percent D. balteata survival (D. balteata; [12]): 3% | Scores of damage caused by D. balteata (D. balteata; [12]): 3.0 | Percent D. balteata survival (D. balteata; [13]): 17% | Scores of damage caused by D. balteata (D. balteata; [13]): 3.8 | Percent D. balteata survival (D. balteata; [14]): 0% | Scores of damage caused by D. balteata (D. balteata; [14]): 2.3 | Percent D. balteata survival (D. balteata; [15]): 11% | Scores of damage caused by D. balteata (D. balteata; [15]): 3.0 | Percent D. balteata survival (D. balteata; [16]): 14% | Scores of damage caused by D. balteata (D. balteata; [16]): 3.4 | Percent D. balteata survival (D. balteata; [17]): 2% | Scores of damage caused by D. balteata (D. balteata; [17]): 1.4 | Percent D. balteata survival (D. balteata; [18]): 4% | Scores of damage caused by D. balteata (D. balteata; [18]): 0 | Percent D. balteata survival (D. balteata; [19]): 17% | Scores of damage caused by D. balteata (D. balteata; [19]): 3.0 | Percent D. balteata survival (D. balteata; [20]): 8% | Scores of damage caused by D. balteata (D. balteata; [20]): 1.8 | Percent D. balteata survival (D. balteata; [21]): 8% | Scores of damage caused by D. balteata (D. balteata; [21]): 1.6 | Percent D. balteata survival (D. balteata; [22]): 8% | Scores of damage caused by D. balteata (D. balteata; [22]): 1.2 | Percent D. balteata survival (D. balteata; [23]): 36% | Scores of damage caused by D. balteata (D. balteata; [23]): 3.4 | Percent D. balteata survival (D. balteata; [24]): 30% | Scores of damage caused by D. balteata (D. balteata; [24]): 3.6 | Percent D. balteata survival (D. balteata; [25]): 0% | Scores of damage caused by D. balteata (D. balteata; [25]): 0.8 | Percent D. balteata survival (D. balteata; [26]): 1% | Scores of damage caused by D. balteata (D. balteata; [26]): 1.0 | Percent D. balteata survival (D. balteata; [27]): 1% | Scores of damage caused by D. balteata (D. balteata; [27]): 2.1 | Percent D. balteata survival (D. balteata; [28]): 1% | Scores of damage caused by D. balteata (D. balteata; [28]): 1.0 | Percent D. balteata survival (D. balteata; [29]): 4% | Scores of damage caused by D. balteata (D. balteata; [29]): 2.1 | Percent D. balteata survival (D. balteata; [30]): 7% | Scores of damage caused by D. balteata (D. balteata; [30]): 1.9 | Percent D. balteata survival (D. balteata; [31]): 4% | Scores of damage caused by D. balteata (D. balteata; [31]): 1.8 | Percent D. balteata survival (D. balteata; [32]): 10% | Scores of damage caused by D. balteata (D. balteata; [32]): 2.2 | Ratings for corn rootworm damage (corn rootworms; Granule, 0.1 g m⁻¹): 3.2 | Ratings for corn rootworm damage (corn rootworms; seed treatment Association Polymer, 10 g/kg): 4.5 | Ratings for corn rootworm damage (corn rootworms; seed treatment PVAc/PVAl, 10 g/kg): 4.1 | Ratings for corn rootworm damage (corn rootworms; seed treatment PVAc/PVAl, 30 g/kg): 4.8
